Data published in patent US20070105879A1 (HALEX ISTAR INDUSTRIA FARMACEUTICA LTDA., priority 2003, published 2007).
Counter-ions that a name gives are not always drawn. Like-named read-outs stand apart in the source and are kept apart here.

Tests used:
[1] = cited from earlier work
[2] = sodium salt / reconstituted state-of-the-art solution, cited from earlier work
[3] = pH and appearance of ganciclovir solutions; assay type: physicochemical; settings: glucose solution, formulation tests
Excerpt: The earlier tests were tried with the 9-((1,3-dihydroxypropan-2-iloxy)methyl)-2-amine-1-purin-6(9H)-one molecule used for preparing the lyophilized product.
Stabilizing the molecule in this pH, allowed lowering hazards during manipulation, once the previous solution was too much alkaline (pH=11), and was too much irritating after its reconstitution being not possible to be in contact with the skin, mucous membranes and eyes. Using appropriate glasses and gloves were necessary when manipulating this substance.
Yes, but can cause irritation in the site of the injection due the elevate pH of the injectable solution (pH˜11). It also can be done by subcutaneous administration, but with the same local irritation risk.
Because the resulting solution is strongly alkaline (pH=11) and irritating after its reconstitution, one must avoid the contact with the skin, mucous membranes and the eyes. Using glasses and gloves are necessary when manipulating it.

cytomegalovirus = settings: drug derived from acyclovir, U.S. Pat. No. 4,355,032; cited from earlier work

Row | Compound | physically and chemically stable (time) ([1]; reconstituted with sterile water for injection, diluted with sodium chloride 0.9% in PVC bags, refrigeration at 5° C.) [days] | pH of solution ([2]; listed as sodium Ganciclovir, sodium salt) | pH of solution ([2]; sodium salt) | appearance of solution [3] | Stability (time) ([1]; room temperature, reconstituted inside its own vial) [h] | pH of solution [2] | activity against cytomegalovirus, times greater (cytomegalovirus) [times]
1 | Nc1nc(O)c2ncn(COC(CO)CO)c2n1 [Ganciclovir sodium salt, 9-((1,3-dihydroxypropan-2-iloxy)methyl)-2-amine-1H-purin-6(9H)-one sodium salt] | 14 | 11 | about 11 |  |  |  | 
2 | Nc1nc2c(ncn2COC(CO)CO)c(=O)[nH]1 [Ganciclovir, 9-((1,3-dihydroxypropan-2-iloxy)methyl)-2-amine-1H-purin-6(9H)-one] |  |  |  | yellowish and oxidized solution | 12 | 11 | 100
